Earlier results as cited in patent publication US20080292714A1, “BONE TARGETING OF DEGRADABLE DRUG FILLED NANOPARTICLES” (Semafore Pharmaceuticals Inc., priority 2003, published 2008).

What was measured:
p53 = biological target: T1, p53 (Mus musculus, UniProt P02340)
T1 construct: endogenous in cells; host or cells: living mice, C57BL and Balb/c strains

[1] = system: C8 (mouse embryo fibroblasts transformed with Ela+ras) cells; conditions: 10 micromolar
[2] = portion not accumulated in skeleton

T1 sequence (P02340 whole entry): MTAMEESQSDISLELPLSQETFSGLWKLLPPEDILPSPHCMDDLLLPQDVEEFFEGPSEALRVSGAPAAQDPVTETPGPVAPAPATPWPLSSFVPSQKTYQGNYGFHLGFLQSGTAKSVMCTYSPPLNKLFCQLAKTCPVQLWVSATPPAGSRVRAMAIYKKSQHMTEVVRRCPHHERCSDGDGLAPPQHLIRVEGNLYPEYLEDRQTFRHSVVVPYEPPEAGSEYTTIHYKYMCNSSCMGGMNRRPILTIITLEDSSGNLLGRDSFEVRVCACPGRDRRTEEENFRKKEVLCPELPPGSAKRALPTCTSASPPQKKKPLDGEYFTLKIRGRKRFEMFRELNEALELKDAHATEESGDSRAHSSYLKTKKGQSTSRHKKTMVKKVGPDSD

Cc1ccc(C(=O)Cn2c3c(sc2=N)CCCC3)cc1 [pifithrin-α, 2-[2-imino-4,5,6,7-tetrahydro-1,3-benzothiazol-3(2H)-yl]-1-(4-methylphenyl)-1-ethanone]
tumors or pathological lesions in gamma-irradiated survivors (p53; 7 months post-irradiation): no tumors or pathological lesions were found | weight loss versus controls (p53; irradiated treated mice): less weight-loss than controls | protective effect in p53-null mice treated with radiation (p53; p53-null mice controls): no protective effect | rescue from 60% killing doses of gamma radiation (p53; single i.p. injection 2.2 mg/kg, 8 Gy C57BL, 6 Gy Balb/c): completely rescued | inhibition of apoptosis induced by doxorubicin, etoposide, Taxol, cytosine arabinoside, UV light, gamma radiation [1]: inhibited apoptosis

O=P([O-])(O)CN(CCN(CP(=O)([O-])O)CP(=O)(O)O)CP(=O)([O-])O.[153Sm+3] [^153Sm-EDTMP]
time after administration at which excretion is almost complete [2]: ≤ 6 h
